Assays:
HCT-8 = test: Cytotoxicity against human HCT-8 cells assessed as reduction in cell number upto 50 uM incubated for 48 hrs by; format: toxicity, cell-based; conditions: hct-8, 48 h
Cryptosporidium parvum = test: Antiparasitic activity against Cryptosporidium parvum infected in human HCT-8 cells assessed as parasitic growth inhibition incubated for 48 hrs by fluorescence microscopic analysis; format: functional, organism-based; conditions: HCT-8, 48 h
hERG (KCNH2) = hERG (KCNH2) (Homo sapiens, UniProt Q12809); test: (§1) Displacement of [3H]Dofetilide from human ERG at 30 uM by automated patch clamp assay relative to control; conditions: probe [3H]Dofetilide, read-out: Activity
[1] = target: Voltage-gated inwardly rectifying potassium channel KCNH2 (Homo sapiens, UniProt Q12809); test: as §1; conditions: 30 µM
[2] = AUC in mouse Jejunum at 5 mg/kg, po measured upto 24 hrs by LC-MS/MS analysis; format: ADME, organism-based; set-up: dose 5 mg/kg, time < 24 hrs, route po; conditions: in vivo
[3] = Metabolic stability in mouse liver microsomes assessed as half life measured upto 60 mins; format: ADME, Microsome; conditions: 1 h
[4] = Plasma protein binding in mouse at 1 uM incubated for 30 mins by LC-MS/MS analysis; format: ADME, cell-free; conditions: 0.5 h
[5] = AUC in mouse plasma at 5 mg/kg, po measured upto 24 hrs by LC-MS/MS analysis; format: ADME, organism-based; set-up: dose 5 mg/kg, time < 24 hrs, route po; conditions: in vivo
[6] = Metabolic stability in mouse liver microsomes assessed as intrinsic clearance measured upto 60 mins; format: ADME, Microsome; conditions: read-out: CLH
[7] = Tmax in mouse plasma at 5 mg/kg, po measured upto 24 hrs by LC-MS/MS analysis; format: ADME, organism-based; conditions: in vivo
[8] = Cmax in mouse Jejunum at 5 mg/kg, po measured upto 24 hrs by LC-MS/MS analysis; format: ADME, organism-based; set-up: dose 5 mg/kg, time < 24 hrs, route po; conditions: in vivo
[9] = Metabolic stability in mouse intestinal S9 fraction assessed as intrinsic clearance measured upto 60 mins; format: ADME, subcellular, Intestine; conditions: read-out: CLH
[10] = Tmax in mouse Jejunum at 5 mg/kg, po measured upto 24 hrs by LC-MS/MS analysis; format: ADME, organism-based; conditions: in vivo
[11] = Metabolic stability in mouse intestinal S9 fraction assessed as half life measured upto 60 mins; format: ADME, subcellular, Intestine; conditions: s9, 1 h
[12] = Plasma protein binding in human at 1 uM incubated for 30 mins by LC-MS/MS analysis; format: ADME, cell-free; conditions: 0.5 h
[13] = Cmax in mouse plasma at 5 mg/kg, po measured upto 24 hrs by LC-MS/MS analysis; format: ADME, organism-based; set-up: time < 24 hrs, dose 5 mg/kg, route po; conditions: in vivo

Voltage-gated inwardly rectifying potassium channel KCNH2, sequence (Q12809 whole entry): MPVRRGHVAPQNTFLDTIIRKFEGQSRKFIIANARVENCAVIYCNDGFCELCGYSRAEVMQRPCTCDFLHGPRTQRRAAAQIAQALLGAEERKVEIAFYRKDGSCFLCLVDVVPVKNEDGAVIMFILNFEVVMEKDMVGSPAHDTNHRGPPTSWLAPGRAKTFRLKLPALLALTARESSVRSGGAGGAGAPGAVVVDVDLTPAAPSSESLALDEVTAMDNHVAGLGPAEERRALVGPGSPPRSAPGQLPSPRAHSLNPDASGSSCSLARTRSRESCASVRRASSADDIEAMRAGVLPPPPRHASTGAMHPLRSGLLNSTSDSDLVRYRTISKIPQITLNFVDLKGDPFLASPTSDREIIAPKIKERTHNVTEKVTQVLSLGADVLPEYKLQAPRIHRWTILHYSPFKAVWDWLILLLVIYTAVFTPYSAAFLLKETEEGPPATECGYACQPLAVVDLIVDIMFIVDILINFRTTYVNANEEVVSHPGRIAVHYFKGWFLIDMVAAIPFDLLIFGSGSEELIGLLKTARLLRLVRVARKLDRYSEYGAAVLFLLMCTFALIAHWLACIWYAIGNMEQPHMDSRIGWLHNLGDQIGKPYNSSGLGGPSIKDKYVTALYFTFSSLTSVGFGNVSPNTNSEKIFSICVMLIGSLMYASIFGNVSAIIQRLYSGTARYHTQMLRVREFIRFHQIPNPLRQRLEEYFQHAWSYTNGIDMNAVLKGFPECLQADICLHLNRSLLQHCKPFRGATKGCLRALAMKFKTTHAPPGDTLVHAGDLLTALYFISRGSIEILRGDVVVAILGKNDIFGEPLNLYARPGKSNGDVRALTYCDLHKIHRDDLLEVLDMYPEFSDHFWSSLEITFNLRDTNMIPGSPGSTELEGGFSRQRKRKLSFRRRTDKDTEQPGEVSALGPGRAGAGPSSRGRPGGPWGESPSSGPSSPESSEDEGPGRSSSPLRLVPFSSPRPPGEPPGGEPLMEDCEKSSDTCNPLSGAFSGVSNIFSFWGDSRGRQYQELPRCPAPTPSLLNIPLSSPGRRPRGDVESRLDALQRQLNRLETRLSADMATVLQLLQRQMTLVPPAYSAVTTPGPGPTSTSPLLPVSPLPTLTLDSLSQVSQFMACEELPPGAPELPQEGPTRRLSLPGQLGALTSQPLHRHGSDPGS
hERG (KCNH2), sequence (Q12809 whole entry): as above

| SMILES | Activity (HCT-8) | EC50 (Cryptosporidium parvum) [nM] | other results |
| --- | --- | --- | --- |
| O=C(Cc1cc(F)cc(F)c1)N1CCN(c2ccc3nncn3n2)CC1 | Non-Toxic | 5700 |  |
| Cc1cccc(CC(=O)N2CCN(c3ccc4nncn4n3)CC2)c1 | Non-Toxic | 12000 |  |
| O=C(Cc1cccc(Cl)c1)N1CCN(c2ccc3nncn3n2)CC1 | Non-Toxic |  |  |
| COc1cccc(CC(=O)N2CCN(c3ccc4nncn4n3)CC2)c1 | Non-Toxic |  |  |
| N#Cc1ccc(CC(=O)N2CCN(c3ccc4nncn4n3)CC2)cc1F | Non-Toxic | 1600 |  |
| O=C(Cc1ccc(-c2ccccc2)cc1)N1CCN(c2ccc3nncn3n2)CC1 | Non-Toxic | 56000 |  |
| O=C(Cc1ccc(F)c(O)c1)N1CCN(c2ccc3nncn3n2)CC1 | Non-Toxic | > 50000 |  |
| O=C(Cc1ccc(F)c(Cl)c1)N1CCN(c2ccc3nncn3n2)CC1 | Non-Toxic | 240 |  |
| O=C(Cc1ccc(F)c(CO)c1)N1CCN(c2ccc3nncn3n2)CC1 | Non-Toxic | 17000 |  |
| O=C(Cc1cccc(C(F)(F)F)c1)N1CCN(c2ccc3nncn3n2)CC1 | Non-Toxic | 1100 |  |
| O=C(Cc1ccc(F)c(F)c1)N1CCN(c2ccc3nncn3n2)CC1 | Non-Toxic | 760 |  |
| O=C(Cc1ccc(O)c(F)c1)N1CCN(c2ccc3nncn3n2)CC1 | Non-Toxic | 53000 |  |
| O=C(Cc1cc(Cl)ccc1Cl)N1CCN(c2ccc3nncn3n2)CC1 | Non-Toxic | 58000 |  |
| O=C(Cc1ccc(S(F)(F)(F)(F)F)cc1)N1CCN(c2ccc3nncn3n2)CC1 | Non-Toxic | 12000 |  |
| COc1ccc(CC(=O)N2CCN(c3ccc4nncn4n3)CC2)cc1F | Non-Toxic | 12000 |  |
| O=C(Cc1ccccc1Br)N1CCN(c2ccc3nncn3n2)CC1 | Non-Toxic | > 50000 |  |
| O=C(Cc1ccc(C(F)(F)F)c(Cl)c1)N1CCN(c2ccc3nncn3n2)CC1 | Non-Toxic | 340 |  |
| O=C(Cc1cccc(C(F)(F)F)c1F)N1CCN(c2ccc3nncn3n2)CC1 | Non-Toxic | 62000 |  |
| O=C(Cc1ccc(Cl)c(F)c1)N1CCN(c2ccc3nncn3n2)CC1 | Non-Toxic | 410 |  |
| O=C(Cc1cc(Cl)cc(C(F)(F)F)c1)N1CCN(c2ccc3nncn3n2)CC1 | Non-Toxic | 410 |  |
| O=C(Cc1ccc(F)c(CF)c1)N1CCN(c2ccc3nncn3n2)CC1 | Non-Toxic | 760 | inhibition at 30 µM (hERG (KCNH2)): 38% |
| O=C(Cc1ccccc1Cl)N1CCN(c2ccc3nncn3n2)CC1 | Non-Toxic | > 25000 |  |
| O=C(Cc1cc(F)cc(Cl)c1)N1CCN(c2ccc3nncn3n2)CC1 | Non-Toxic | 880 |  |
| Cc1ccccc1CC(=O)N1CCN(c2ccc3nncn3n2)CC1 | Non-Toxic | > 50000 |  |

| SMILES | Activity (HCT-8) | EC50 (Cryptosporidium parvum) [nM] | other results |
| --- | --- | --- | --- |
| O=C(Cc1cccc(S(F)(F)(F)(F)F)c1)N1CCN(c2ccc3nncn3n2)CC1 | Non-Toxic | 1100 |  |
| O=C(Cc1cc(C(F)(F)F)ccc1F)N1CCN(c2ccc3nncn3n2)CC1 | Non-Toxic | 15000 |  |
| O=C(Cc1cccc(-c2ccccc2)c1)N1CCN(c2ccc3nncn3n2)CC1 | Non-Toxic | 25000 |  |
| O=C(Cc1cc(C(F)(F)F)cc(C(F)(F)F)c1)N1CCN(c2ccc3nncn3n2)CC1 | Non-Toxic | 320 | Activity [1]: 54% |
| O=C(Cc1ccc([N+](=O)[O-])cc1)N1CCN(c2ccc3nncn3n2)CC1 | Non-Toxic |  |  |
| O=C(Cc1cc(Cl)cc(Cl)c1)N1CCN(c2ccc3nncn3n2)CC1 | Non-Toxic | 1200 |  |
| O=C(Cc1ccc(Cl)c(Br)c1)N1CCN(c2ccc3nncn3n2)CC1 | Non-Toxic | 120 |  |
| N#Cc1cccc(CC(=O)N2CCN(c3ccc4nncn4n3)CC2)c1 | Non-Toxic | 38000 |  |
| O=C(Cc1cccc(Br)c1)N1CCN(c2ccc3nncn3n2)CC1 | Non-Toxic | 2200 |  |
| COc1cc(CC(=O)N2CCN(c3ccc4nncn4n3)CC2)ccc1F | Non-Toxic | 1000 |  |
| COc1ccc(CC(=O)N2CCN(c3ccc4nncn4n3)CC2)cc1 | Non-Toxic |  |  |
| O=C(Cc1ccc(F)c(OC(F)(F)F)c1)N1CCN(c2ccc3nncn3n2)CC1 | Non-Toxic | 670 |  |
| O=C(Cc1ccc([N+](=O)[O-])c(F)c1)N1CCN(c2ccc3nncn3n2)CC1 | Non-Toxic | 25000 |  |
| O=C(Cc1ccccc1F)N1CCN(c2ccc3nncn3n2)CC1 | Non-Toxic | > 60000 |  |
| O=C(Cc1c(Cl)cccc1Cl)N1CCN(c2ccc3nncn3n2)CC1 | Non-Toxic | > 25000 |  |
| N#Cc1cc(CC(=O)N2CCN(c3ccc4nncn4n3)CC2)ccc1F | Non-Toxic | 2100 |  |
| O=C(Cc1ccc(Br)c(F)c1)N1CCN(c2ccc3nncn3n2)CC1 | Non-Toxic | 770 |  |
| O=C(Cc1cc(F)c(F)c(F)c1)N1CCN(c2ccc3nncn3n2)CC1 | Non-Toxic | 400 |  |
| Cc1ccc(CC(=O)N2CCN(c3ccc4nncn4n3)CC2)cc1F | Non-Toxic | 5300 |  |
| O=C(Cc1ccc(O)cc1)N1CCN(c2ccc3nncn3n2)CC1 | Non-Toxic | > 50000 |  |
| O=C(Cc1ccc(F)cc1)N1CCN(c2ccc3nncn3n2)CC1 | Non-Toxic |  |  |
| Cc1cc(F)ccc1CC(=O)N1CCN(c2ccc3nncn3n2)CC1 | Non-Toxic | 22000 |  |
| O=C(Cc1ccc(F)c(Br)c1)N1CCN(c2ccc3nncn3n2)CC1 | Non-Toxic | 230 |  |
| Cc1cc(CC(=O)N2CCN(c3ccc4nncn4n3)CC2)cc(C(F)(F)F)c1F | Non-Toxic | 70 |  |

| SMILES | Activity (HCT-8) | EC50 (Cryptosporidium parvum) [nM] | other results |
| --- | --- | --- | --- |
| Cc1cc(CC(=O)N2CCN(c3ccc4nncn4n3)CC2)ccc1F | Non-Toxic | 370 |  |
| O=C(Cc1ccc(Cl)cc1Cl)N1CCN(c2ccc3nncn3n2)CC1 | Non-Toxic | > 25000 |  |
| O=C(Cc1ccc(Br)cc1)N1CCN(c2ccc3nncn3n2)CC1 | Non-Toxic | 1100 |  |
| O=C(Cc1ccc(Cl)c(Cl)c1)N1CCN(c2ccc3nncn3n2)CC1 |  |  | AUC [2]: 3013 ng·h/g; t1/2 [3]: 1.38 h; PPB [4]: 92.7%; Activity [1]: 46%; AUC [5]: 3387 ng·h/mL; microsomal CLint [6]: 85.2 µL/min/mg; Tmax [7]: 1 h; Cmax [8]: 317 ng/g; microsomal CLint [9]: < 5.8 µL/min/mg; Tmax [10]: 1 h; t1/2 [11]: > 2 h; PPB [12]: 98.2%; Cmax [13]: 532 ng/mL |
| N#Cc1ccc(CC(=O)N2CCN(c3ccc4nncn4n3)CC2)cc1 | Non-Toxic |  |  |
| O=C(Cc1cccc([N+](=O)[O-])c1)N1CCN(c2ccc3nncn3n2)CC1 | Non-Toxic | 18000 |  |
| Cc1ccc(CC(=O)N2CCN(c3ccc4nncn4n3)CC2)cc1 | Non-Toxic | 10000 |  |
| O=C(Cc1cccc(F)c1)N1CCN(c2ccc3nncn3n2)CC1 | Non-Toxic | 14000 |  |
| O=C(Cc1ccc(C(F)(F)F)c(F)c1)N1CCN(c2ccc3nncn3n2)CC1 | Non-Toxic | 2000 |  |
| O=C(Cc1ccc(F)c([N+](=O)[O-])c1)N1CCN(c2ccc3nncn3n2)CC1 | Non-Toxic | 620 |  |
| O=C(Cc1ccc(Cl)c(C(F)(F)F)c1)N1CCN(c2ccc3nncn3n2)CC1 | Non-Toxic | 270 |  |
| O=C(Cc1cc(F)cc(C(F)(F)F)c1)N1CCN(c2ccc3nncn3n2)CC1 | Non-Toxic | 1700 |  |
| O=C(Cc1ccc(Cl)cc1)N1CCN(c2ccc3nncn3n2)CC1 | Non-Toxic |  |  |
| Cc1cc(CC(=O)N2CCN(c3ccc4nncn4n3)CC2)ccc1Cl | Non-Toxic | 270 |  |
| O=C(Cc1cccc(O)c1)N1CCN(c2ccc3nncn3n2)CC1 | Non-Toxic | 34000 |  |
| O=C(Cc1ccc(F)c(C(F)F)c1)N1CCN(c2ccc3nncn3n2)CC1 | Non-Toxic | 470 | inhibition at 30 µM (hERG (KCNH2)): 23% |
| O=C(Cc1ccc(C(F)(F)F)cc1)N1CCN(c2ccc3nncn3n2)CC1 | Non-Toxic | 5500 |  |
| O=C(Cc1ccc(Br)c(Cl)c1)N1CCN(c2ccc3nncn3n2)CC1 | Non-Toxic | 250 |  |
| C#Cc1ccc(CC(=O)N2CCN(c3ccc4nncn4n3)CC2)cc1 | Non-Toxic | 880 |  |
| Cc1ccc(CC(=O)N2CCN(c3ccc4nncn4n3)CC2)cc1Cl | Non-Toxic | 1100 |  |
| O=C(Cc1cccc(Cl)c1Cl)N1CCN(c2ccc3nncn3n2)CC1 | Non-Toxic | > 25000 |  |
| O=C(Cc1ccc(CO)cc1)N1CCN(c2ccc3nncn3n2)CC1 | Non-Toxic | > 25000 |  |

— ChEMBL document CHEMBL5338813 (J Med Chem, 2023)
